Laboratory results reported in US20250145633A1, “SUBSTITUTED FURANOPYRIMIDINE COMPOUNDS AS PDE1 INHIBITORS” (Dart NeuroScience, LLC, priority 2017, published 2025).

Target: human PDE1B enzyme (Homo sapiens (Human), UniProt Q01064)
Experiment: IMAP TR-FRET PDE1B enzymatic assay
Assay type: biochemical
Conditions: negative log of half-maximal molar inhibitory concentration, 200 nM FAM-cAMP, values given as bins; for IC50: read-out: PDE1b (pIC50) (converted)
Procedure, shortened: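 Full-length GST-tagged human PDE1B (250 pg/well) in IMAP BSA buffer with 10 U/ml calmodulin and 2.5 mM CaCl2; compound pre-incubated 5 min at room temperature, then 200 nM (final) FAM-cAMP for 30 min. IMAP binding reagent/Tb added, 1 h; TR-FRET 520/490 ratio read. IC50 from sigmoidal dose-response fit.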

Row | SMILES | IC50 | PDE1b (pIC50)
1 | Cc1cnc(C2CCN(C(=O)c3c(C)oc4ncnc(NC5(C)CC5)c34)CC2)cn1 [Example 393, 6-Methyl-N-(1-methylcyclopropyl)-5-[4-(5-methylpyrazin-2-yl)piperidine-1-carbonyl]furo[2,3-d]pyrimidin-4-amine] | 10 to 100 nM | –
2 | COc1ncc(C2CCN(C(=O)c3c(C)oc4ncnc(NC5(C)CC5)c34)CC2)cn1 [Example 394, 5-[4-(2-Methoxypyrimidin-5-yl)piperidine-1-carbonyl]-6-methyl-N-(1-methylcyclopropyl)furo[2,3-d]pyrimidin-4-amine] | 10 to 100 nM | –
3 | Cc1cccc(C2CCN(C(=O)c3c(C)oc4ncnc(NC5(C)CC5)c34)C2)c1 (stereo not shown) [Example 395, 6-Methyl-N-(1-methylcyclopropyl)-5-[3-(3-methylphenyl)pyrrolidine-1-carbonyl]furo[2,3-d]pyrimidin-4-amine] | – | >8
4 | Cc1oc2ncnc(NC3(C)CC3)c2c1C(=O)N1CCC(c2cccc(C(F)(F)F)c2)C1 (stereo not shown) [Example 396, 6-Methyl-N-(1-methylcyclopropyl)-5-{3-[3-(trifluoromethyl)phenyl]pyrrolidine-1-carbonyl}furo[2,3-d]pyrimidin-4-amine] | – | >8
5 | Cc1cc(C)cc(C2CCN(C(=O)c3c(C)oc4ncnc(NC5(C)CC5)c34)C2)c1 (stereo not shown) [Example 397, 5-[3-(3,5-Dimethylphenyl)pyrrolidine-1-carbonyl]-6-methyl-N-(1-methylcyclopropyl)furo[2,3-d]pyrimidin-4-amine] | – | >8
6 | Cc1oc2ncnc(NC3(C)CC3)c2c1C(=O)N1CCC(Oc2cccc(F)c2)C1 (stereo not shown) [Example 398, 5-[3-(3-Fluorophenoxy)pyrrolidine-1-carbonyl]-6-methyl-N-(1-methylcyclopropyl)furo[2,3-d]pyrimidin-4-amine] | – | >8
7 | Cc1oc2ncnc(NC3(C)CC3)c2c1C(=O)N1CCC(Oc2ccc(F)cc2)C1 (stereo not shown) [Example 399, 5-[3-(4-Fluorophenoxy)pyrrolidine-1-carbonyl]-6-methyl-N-(1-methylcyclopropyl)furo[2,3-d]pyrimidin-4-amine] | 10 to 100 nM | –
8 | Cc1oc2ncnc(NC3(C)CC3)c2c1C(=O)NC(C)C1CC1 (stereo not shown) [Example 400, N-(1-Cyclopropylethyl)-6-methyl-4-[(1-methylcyclopropyl)amino]furo[2,3-d]pyrimidine-5-carboxamide] | 10 to 100 nM | –
9 | CCC(NC(=O)c1c(C)oc2ncnc(NC3(C)CC3)c12)C1CC1 (stereo not shown) [Example 401, N-(1-Cyclopropylpropyl)-6-methyl-4-[(1-methylcyclopropyl)amino]furo[2,3-d]pyrimidine-5-carboxamide] | 10 to 100 nM | –
10 | Cc1oc2ncnc(NC3(C)CC3)c2c1C(=O)NC(C)C1(C)CC1 (stereo not shown) [Example 402, 6-Methyl-4-[(1-methylcyclopropyl)amino]-N-[1-(1-methylcyclopropyl)ethyl]furo[2,3-d]pyrimidine-5-carboxamide] | 10 to 100 nM | –
11 | Cc1oc2ncnc(NC3(C)CC3)c2c1C(=O)N1CC2CC(C1)c1ccccc12 [Example 403, 5-{10-Azatricyclo[6.3.1.0^2,7]dodeca-2,4,6-triene-10-carbonyl}-6-methyl-N-(1-methylcyclopropyl)furo[2,3-d]pyrimidin-4-amine] | 100 to 1000 nM | –
12 | Cc1oc2ncnc(NC3(C)CC3)c2c1C(=O)n1cc(C(C)C)cn1 [Example 404, 6-Methyl-N-(1-methylcyclopropyl)-5-[4-(propan-2-yl)-1H-pyrazole-1-carbonyl]furo[2,3-d]pyrimidin-4-amine] | 10 to 100 nM | –
13 | Cc1oc2ncnc(NC3(C)CC3)c2c1C(=O)n1cc(-c2ccccc2)cn1 [Example 405, 6-Methyl-N-(1-methylcyclopropyl)-5-(4-phenyl-1H-pyrazole-1-carbonyl)furo[2,3-d]pyrimidin-4-amine] | 100 to 1000 nM | –
14 | COc1ccc(-c2cnn(C(=O)c3c(C)oc4ncnc(NC5(C)CC5)c34)c2)cc1 [Example 406, 5-[4-(4-Methoxyphenyl)-1H-pyrazole-1-carbonyl]-6-methyl-N-(1-methylcyclopropyl)furo[2,3-d]pyrimidin-4-amine] | 100 to 1000 nM | –
15 | Cc1oc2ncnc(NC3(C)CC3)c2c1C(=O)n1cc(-c2ccc(F)cc2)cn1 [Example 407, 5-[4-(4-Fluorophenyl)-1H-pyrazole-1-carbonyl]-6-methyl-N-(1-methylcyclopropyl)furo[2,3-d]pyrimidin-4-amine] | 10 to 100 nM | –
16 | Cc1cnn(C(=O)c2c(C)oc3ncnc(NC4(C)CC4)c23)c1 [Example 408, 6-Methyl-5-(4-methyl-1H-pyrazole-1-carbonyl)-N-(1-methylcyclopropyl)furo[2,3-d]pyrimidin-4-amine] | 100 to 1000 nM | –
17 | Cc1nn(C(=O)c2c(C)oc3ncnc(NC4(C)CC4)c23)c(C)c1C [Example 409, 6-Methyl-N-(1-methylcyclopropyl)-5-(trimethyl-1H-pyrazole-1-carbonyl)furo[2,3-d]pyrimidin-4-amine] | 10 to 100 nM | –

Row | SMILES | IC50 | PDE1b (pIC50)
18 | Cc1oc2ncnc(NC3(C)CC3)c2c1C(=O)n1cccn1 [Example 410, 6-Methyl-N-(1-methylcyclopropyl)-5-(1H-pyrazole-1-carbonyl)furo[2,3-d]pyrimidin-4-amine] | 100 to 1000 nM | –
19 | Cc1cc(C)n(C(=O)c2c(C)oc3ncnc(NC4(C)CC4)c23)n1 [Example 411, 5-(3,5-Dimethyl-1H-pyrazole-1-carbonyl)-6-methyl-N-(1-methylcyclopropyl)furo[2,3-d]pyrimidin-4-amine] | 10 to 100 nM | –
20 | COc1cccc(-c2cnn(C(=O)c3c(C)oc4ncnc(NC5(C)CC5)c34)c2)c1 [Example 412, 5-[4-(3-Methoxyphenyl)-1H-pyrazole-1-carbonyl]-6-methyl-N-(1-methylcyclopropyl)furo[2,3-d]pyrimidin-4-amine] | 10 to 100 nM | –
21 | Cc1oc2ncnc(NC3(C)CC3)c2c1C(=O)NCC1(C)CC1 [Example 413, 6-Methyl-4-[(1-methylcyclopropyl)amino]-N-[(1-methylcyclopropyl)methyl]furo[2,3-d]pyrimidine-5-carboxamide] | 10 to 100 nM | –
22 | Cc1oc2ncnc(NC3(C)CC3)c2c1C(=O)N1CCC(Cc2ccc(F)cc2)C1 (stereo not shown) [Example 414, 5-{3-[(4-Fluorophenyl)methyl]pyrrolidine-1-carbonyl}-6-methyl-N-(1-methylcyclopropyl)furo[2,3-d]pyrimidin-4-amine] | 10 to 100 nM | –
23 | Cc1nn(C(=O)c2c(C)oc3ncnc(NC4(C)CC4)c23)c(C)c1CN1CCOCC1 [Example 415, 5-[3,5-Dimethyl-4-(morpholin-4-ylmethyl)-1H-pyrazole-1-carbonyl]-6-methyl-N-(1-methylcyclopropyl)furo[2,3-d]pyrimidin-4-amine] | 10 to 100 nM | –
24 | Cc1oc2ncnc(NC3(C)CC3)c2c1C(=O)Nc1ccn(C)n1 [Example 416, 6-Methyl-N-(1-methyl-1H-pyrazol-3-yl)-4-[(1-methylcyclopropyl)amino]furo[2,3-d]pyrimidine-5-carboxamide] | 10 to 100 nM | –
25 | Cc1oc2ncnc(NC3(C)CC3)c2c1C(=O)Nc1cnn(C)c1C [Example 417, N-(1,5-Dimethyl-1H-pyrazol-4-yl)-6-methyl-4-[(1-methylcyclopropyl)amino]furo[2,3-d]pyrimidine-5-carboxamide] | 10 to 100 nM | –
26 | Cc1nn(C)c(C)c1NC(=O)c1c(C)oc2ncnc(NC3(C)CC3)c12 [Example 418, 6-Methyl-4-[(1-methylcyclopropyl)amino]-N-(trimethyl-1H-pyrazol-4-yl)furo[2,3-d]pyrimidine-5-carboxamide] | 10 to 100 nM | –
27 | Cc1oc2ncnc(NC3(C)CC3)c2c1C(=O)Nc1cnn(-c2ccccn2)c1 [Example 419, 6-Methyl-4-[(1-methylcyclopropyl)amino]-N-[1-(pyridin-2-yl)-1H-pyrazol-4-yl]furo[2,3-d]pyrimidine-5-carboxamide] | 10 to 100 nM | –
28 | COCCn1nc(C)c(NC(=O)c2c(C)oc3ncnc(NC4(C)CC4)c23)c1C [Example 420, N-[1-(2-Methoxyethyl)-3,5-dimethyl-1H-pyrazol-4-yl]-6-methyl-4-[(1-methylcyclopropyl)amino]furo[2,3-d]pyrimidine-5-carboxamide] | 10 to 100 nM | –
29 | Cc1oc2ncnc(NC3(C)CC3)c2c1C(=O)Nc1cnn(CCN2CCOCC2)c1 [Example 421, 6-Methyl-4-[(1-methylcyclopropyl)amino]-N-{1-[2-(morpholin-4-yl)ethyl]-1H-pyrazol-4-yl}furo[2,3-d]pyrimidine-5-carboxamide] | 10 to 100 nM | –
30 | COc1cccc(C2CCN(C(=O)c3c(C)oc4ncnc(NC5(C)CC5)c34)CC2)n1 [Example 422, 5-[4-(6-Methoxypyridin-2-yl)piperidine-1-carbonyl]-6-methyl-N-(1-methylcyclopropyl)furo[2,3-d]pyrimidin-4-amine] | – | >8
31 | COc1cnc(C2CCN(C(=O)c3c(C)oc4ncnc(NC5(C)CC5)c34)CC2)nc1C [Example 423, 5-[4-(5-Methoxy-4-methylpyrimidin-2-yl)piperidine-1-carbonyl]-6-methyl-N-(1-methylcyclopropyl)furo[2,3-d]pyrimidin-4-amine] | 10 to 100 nM | –
32 | Cc1oc2ncnc(NC3(C)CC3)c2c1C(=O)N1CCc2c(nc(-c3ccc(F)cc3)[nH]c2=O)C1 [Example 424, 2-(4-Fluorophenyl)-7-{6-methyl-4-[(1-methylcyclopropyl)amino]furo[2,3-d]pyrimidine-5-carbonyl}-3H,4H,5H,6H,7H,8H-pyrido[3,4-d]pyrimidin-4-one] | 10 to 100 nM | –
33 | COCc1nc2c(c(=O)[nH]1)CCN(C(=O)c1c(C)oc3ncnc(NC4(C)CC4)c13)C2 [Example 425, 2-(Methoxymethyl)-7-{6-methyl-4-[(1-methylcyclopropyl)amino]furo[2,3-d]pyrimidine-5-carbonyl}-3H,4H,5H,6H,7H,8H-pyrido[3,4-d]pyrimidin-4-one] | 100 to 1000 nM | –
34 | Cc1cccc(NC(=O)c2c(C)oc3ncnc(NC4(C)CC4)c23)n1 [Example 426, 6-Methyl-4-[(1-methylcyclopropyl)amino]-N-(6-methylpyridin-2-yl)furo[2,3-d]pyrimidine-5-carboxamide] | 10 to 100 nM | –
